Molecular target: T1, Alpha-amylase 1A (Homo sapiens, UniProt P0DUB6)
T1 sequence (P0DUB6 whole entry): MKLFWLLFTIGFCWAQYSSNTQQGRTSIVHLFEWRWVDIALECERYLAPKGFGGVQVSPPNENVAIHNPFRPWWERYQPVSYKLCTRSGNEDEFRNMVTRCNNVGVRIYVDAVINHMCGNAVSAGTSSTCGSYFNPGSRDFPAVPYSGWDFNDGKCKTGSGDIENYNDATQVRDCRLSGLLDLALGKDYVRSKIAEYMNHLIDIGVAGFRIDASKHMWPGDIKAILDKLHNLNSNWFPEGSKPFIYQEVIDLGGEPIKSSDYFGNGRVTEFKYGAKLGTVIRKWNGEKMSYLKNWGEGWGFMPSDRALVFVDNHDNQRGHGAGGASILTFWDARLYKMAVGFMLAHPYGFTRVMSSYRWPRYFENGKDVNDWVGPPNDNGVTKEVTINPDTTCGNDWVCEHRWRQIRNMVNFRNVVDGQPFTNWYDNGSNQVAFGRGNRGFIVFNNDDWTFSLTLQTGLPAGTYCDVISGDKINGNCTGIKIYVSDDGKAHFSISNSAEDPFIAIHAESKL
Assay: Inhibition of Alpha-amylase (unknown origin)

| IC50 | Compound |
| --- | --- |
| 4.1 nM | O=C(O)CN1C(=O)SC(=Cc2cn(-c3ccccc3)nc2-c2ccc([N+](=O)[O-])cc2)C1=O |
| 44 nM | C=CCN1C(=O)SC(=Cc2ccc(Cl)cc2Cl)C1=O |
| 0.13 nM | N#Cc1ccccc1-c1ccc(N2C(=O)SC(=Cc3ccccc3Oc3ccccc3)C2=O)cc1 |
| 10 nM | O=C(O)CN1C(=O)SC(=Cc2ccc3c(c2)OCO3)C1=O |

Reference: BindingDB's records for PubMed 38252989 (IK Gujral Punjab Technical University)
